{"source": "patent US20230193192A1", "about": "(priority 2021, published 2023)", "key": {"NIH B38": {"test_system": "NIH B38", "details": "cited from earlier work"}, "LVS": {"test_system": "LVS", "details": "standard conditions; cited from earlier work"}, "F. novicida": {"test_system": "F. novicida", "format": "cell-based, Francisella novicida", "details": "for MIC: pH 7.1"}, "F. tularensis LVS": {"test_system": "F. tularensis LVS", "format": "cell-based, Francisella tularensis holarctica Live Vaccine Strain", "details": "for MIC: pH 7.1"}, "[1]": {"test_system": "Francisella tularensis holarctica Live Vaccine Strain", "details": "cited from earlier work"}, "Francisella philomiragia": {"test_system": "Francisella philomiragia", "format": "cell-based"}, "[2]": {"test_system": "Galleria mellonella (waxworm) larvae", "details": "in vivo"}, "Francisella novicida [3]": {"test_system": "Francisella novicida", "details": "cited from earlier work"}, "Francisella novicida [4]": {"test_system": "Francisella novicida", "details": "cited from earlier work", "remark": "listed apart in the source"}, "[5]": {"test_system": "Francisella tularensis tularensis Schu4", "details": "cited from earlier work"}}, "data": [{"molecule": "[H]/N=C(/N)N[C@H]1[C@H](O)[C@@H](O)[C@H](O[C@@H]2O[C@@H](C)[C@](O)(C=O)[C@H]2O[C@@H]2O[C@@H](CO)[C@H](O)[C@@H](O)[C@@H]2NC)[C@@H](N/C(N)=N\\[H])[C@@H]1O", "note": "[Streptomycin, D-Streptamine, O-2-deoxy-2-(methylamino)-α-L-glucopyranosyl-(1->2)-O-5-deoxy-3-C-formyl-α-L-lyxofuranosyl-(1->4)-N1,N3-bis(aminoiminomethyl)-]", "values": [{"measurement": "MIC", "setting": "NIH B38", "value": 0.25, "unit": "µg/mL"}, {"measurement": "MIC", "setting": "LVS", "value": 0.38, "unit": "µg/mL"}]}, {"molecule": "Colistin", "values": [{"measurement": "This study Colistin", "setting": "F. novicida", "value": "~1024"}, {"measurement": "MIC", "setting": "F. novicida", "value": 1024, "unit": "µg/mL"}, {"measurement": "This study Colistin", "setting": "F. tularensis LVS", "value": "> 1024"}, {"measurement": "MIC", "setting": "F. tularensis LVS", "value": ">1024", "unit": "µg/mL"}, {"measurement": "Kirby Bauer Colistin", "setting": "[1]", "value": 0, "unit": "mm"}, {"measurement": "This study Colistin", "setting": "Francisella philomiragia", "value": "> 1024"}, {"measurement": "Toxicity, survival of waxworms", "setting": "[2]", "value": "killed the waxworms"}]}, {"molecule": "Polymyxin B", "values": [{"measurement": "This study Polymyxin B", "setting": "F. novicida", "value": 256}, {"measurement": "MIC", "setting": "F. novicida", "value": 256, "unit": "µg/mL"}, {"measurement": "Kirby Bauer Polymyxin B", "setting": "Francisella novicida [3]", "value": 19, "unit": "mm"}, {"measurement": "MIC", "setting": "Francisella novicida [4]", "value": 38, "unit": "µg/mL"}, {"measurement": "Kirby Bauer Polymyxin B", "setting": "[5]", "value": 10, "unit": "mm"}, {"measurement": "This study Polymyxin B", "setting": "F. tularensis LVS", "value": 256}, {"measurement": "MIC", "setting": "F. tularensis LVS", "value": 256, "unit": "µg/mL"}, {"measurement": "This study Polymyxin B", "setting": "Francisella philomiragia", "value": 1024}, {"measurement": "Toxicity, survival of waxworms", "setting": "[2]", "value": "killed the waxworms"}]}]}
